From patent US9932350B2, “Inhibitors of IRAK4 activity” (MERCK SHARP & DOHME CORP., priority 2014, dated 2018)

These compounds were tested against GST tagged IRAK4 (Homo sapiens (Human), UniProt Q9NWZ3) (assay: IRAK4 Kinase Assay (IMAP fluorescence polarization)). Details: 0.5 nM GST tagged IRAK4, 100 μM ATP, 30 minutes at 25° C.
Format: biochemical
Procedure: The kinase activity of IRAK4 is determined by its ability to catalyze the phosphorylation of a fluorescent polypeptide substrate. The extent of phosphorylation is measured using the IMAP technology (Molecular Devices) where the phosphorylated fluorescent substrate binds to the large M(III)-based nanoparticles which reduces the rotational speed of the substrate and thus increases its fluorescent polarization (FP).
20 μL reaction mixture contains 10 mM TriHCl, pH 7.2, 0.5 nM GST tagged IRAK4 (SignalChem), 100 nM fluorescent peptide substrate (RP7030, Molecular Devices), 100 μM ATP, 1 mM DDT, 1 mM MgCl2, and 0.01% Tween 20. The reaction is initiated by the addition of ATP. After incubation for 30 minutes at 25° C., 60 μL of Progressive IMAP Reagent (Molecular Devices) is added to stop the reaction. Change in RP7030's FP is determined by a FP reader (Analyst HT, LJL BioSystems).

Sequence of GST tagged IRAK4 (Q9NWZ3 whole entry): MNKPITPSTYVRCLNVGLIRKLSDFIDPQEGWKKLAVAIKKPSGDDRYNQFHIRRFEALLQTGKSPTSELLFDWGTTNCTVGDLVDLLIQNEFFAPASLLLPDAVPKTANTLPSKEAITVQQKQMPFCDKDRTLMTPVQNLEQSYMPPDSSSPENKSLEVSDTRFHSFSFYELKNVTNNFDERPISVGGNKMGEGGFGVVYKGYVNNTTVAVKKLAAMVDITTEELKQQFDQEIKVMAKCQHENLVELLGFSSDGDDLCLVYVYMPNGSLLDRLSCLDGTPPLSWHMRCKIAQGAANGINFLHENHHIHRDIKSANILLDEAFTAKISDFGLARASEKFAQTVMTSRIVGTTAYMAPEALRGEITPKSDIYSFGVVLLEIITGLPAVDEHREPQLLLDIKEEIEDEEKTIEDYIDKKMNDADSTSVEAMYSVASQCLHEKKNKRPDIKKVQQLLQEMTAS

IC50 [nM]	SMILES
33	N#Cc1ccc2ncnc(N[C@H]3CC[C@H](N4CCCC(C(F)(F)F)C4)CC3)c2c1 (single isomer, unassigned) [Example 3-2, 4-({cis or trans-4-[(3R or S)-3-(trifluoromethyl)piperidin-1-yl]cyclohexyl}amino) quinazoline-6-carbonitrile]
7	N#Cc1ccc2ncnc(NC3CCC(N4CCCC(C(F)(F)F)C4)CC3)c2c1 (single isomer, unassigned) [Example 3-3, 4-({cis or trans-4-[(3R or S)-3-(trifluoromethyl)piperidin-1-yl]cyclohexyl}amino) quinazoline-6-carbonitrile]
503	N#Cc1ccc2ncnc(NC3CCC(N4CCCC(C(F)(F)F)C4)CC3)c2c1 (single isomer, unassigned) [Example 3-4, 4-({cis or trans-4-[(3R or S)-3-(trifluoromethyl)piperidin-1-yl]cyclohexyl}amino) quinazoline-6-carbonitrile]
908	N#Cc1ccc2ncnc(NC3CCC(N4CCCC(C(F)(F)F)C4)CC3)c2c1 (single isomer, unassigned) [Example 3-5, 4-({cis or trans-4-[(3R or S)-3-(trifluoromethyl)piperidin-1-yl]cyclohexyl}amino) quinazoline-6-carbonitrile]
7	N#Cc1ccc2ncnc(N[C@H]3CC[C@H](N4CCOC(CO)C4)CC3)c2c1 (single isomer, unassigned) [Example 3-11, 4-({trans-4-[(2R or 2S)-2-(hydroxymethyl)morpholin-4-yl]cyclohexyl}amino) quinazoline-6-carbonitrile]
6	N#Cc1ccc2ncnc(N[C@H]3CC[C@H](N4CCOC(CO)C4)CC3)c2c1 (single isomer, unassigned) [Example 3-12, 4-({trans-4-[(2R or 2S)-2-(hydroxymethyl)morpholin-4-yl]cyclohexyl}amino) quinazoline-6-carbonitrile]
33	CC1CN([C@H]2CC[C@H](Nc3ncnc4ccc(C#N)cc34)CC2)CC(C)O1 (single isomer, unassigned) [Example 3-14, 4-({trans-4-[(2S,6S or 2R,6R)-2,6-dimethylmorpholin-4-yl]cyclohexyl}amino) quinazoline-6-carbonitrile]
58	CC1CN([C@H]2CC[C@H](Nc3ncnc4ccc(C#N)cc34)CC2)CC(C)O1 (single isomer, unassigned) [Example 3-15, 4-({trans-4-[2S,6S or 2R,6R)-2,6-dimethylmorpholin-4-yl]cyclohexyl}amino) quinazoline-6-carbonitrile]
7	CC1CN([C@H]2CC[C@H](Nc3ncnc4ccc(C#N)cc34)CC2)CCO1 (single isomer, unassigned) [Example 3-16, 4-({trans-4-[(2S or 2R)-2-methylmorpholin-4-yl]cyclohexyl}amino) quinazoline-6-carbonitrile]
4	CC1CN([C@H]2CC[C@H](Nc3ncnc4ccc(C#N)cc34)CC2)CCO1 (single isomer, unassigned) [Example 3-17, 4-({trans-4-[(2S or 2R)-2-methylmorpholin-4-yl]cyclohexyl}amino) quinazoline-6-carbonitrile]
70	N#Cc1ccc2ncnc(N[C@H]3CC[C@H](N4CCCC(CN5CCOCC5)C4)CC3)c2c1 (single isomer, unassigned) [Example 3-41, 4-({trans-4-[(3R or 3S)-3-(morpholin-4-ylmethyl)piperidin-1-yl]cyclohexyl}amino) quinazoline-6-carbonitrile]
5	N#Cc1ccc2ncnc(N[C@H]3CC[C@H](N4CCCC(CN5CCOCC5)C4)CC3)c2c1 (single isomer, unassigned) [Example 3-42, 4-({trans-4-[(3R or 3S)-3-(morpholin-4-ylmethyl)piperidin-1-yl]cyclohexyl}amino) quinazoline-6-carbonitrile]
256	N#Cc1ccc2ncnc(N[C@H]3CC[C@H](N4CCOC(C(F)(F)F)C4)CC3)c2c1 (single isomer, unassigned) [Example 3-48, 4-({trans-4-[(2R or 2S)-2-(trifluoromethyl)morpholin-4-yl]cyclohexyl}amino) quinazoline-6-carbonitrile]
131	N#Cc1ccc2ncnc(N[C@H]3CC[C@H](N4CCOC(C(F)(F)F)C4)CC3)c2c1 (single isomer, unassigned) [Example 3-49, 4-({trans-4-[(2R or 2S)-2-(trifluoromethyl)morpholin-4-yl]cyclohexyl}amino) quinazoline-6-carbonitrile]
14	CC1CC(N2CCOCC2)CCC1Nc1ncnc2ccc(C#N)cc12 (single isomer, unassigned) [Example 8-1, 4-{[(1R,2R,4R or 1S,2S,4S)-2-methyl-4-(morpholin-4-yl)cyclohexyl]amino}quinazoline-6-carbonitrile]
10	CC1CC(N2CCC(F)CC2)CCC1Nc1ncnc2ccc(C#N)cc12 (single isomer, unassigned) [Example 8-2, 4-{[(1S,2S,4S or 1R,2R,4R)-4-(4-fluoropiperidin-1-yl)-2-methylcyclohexyl]amino} quinazoline-6-carbonitrile]
26	CC1CC(N2CCOCC2)CCC1Nc1ncnc2ccc(C#N)cc12 (single isomer, unassigned) [Example 8-3, 4-{[(1S,2R,4S or 1R,2S,4R)-2-methyl-4-(morpholin-4-yl)cyclohexyl]amino} quinazoline-6-carbonitrile]

Second part, the compound before the results:

SMILES	IC50 [nM]
N#Cc1ccc2ncnc(N[C@H]3CC[C@H](N)CC3)c2c1 [Example 1-1, 4-[(Trans-4-aminocyclohexyl)amino]quinazoline-6-carbonitrile]	31
N[C@H]1CC[C@H](Nc2ncnc3ccc(Br)cc23)CC1 [Example 1-2, trans-N-(6-bromoquinazolin-4-yl)cyclohexane-1,4-diamine]	27
Brc1ccc2ncnc(O[C@H]3CC[C@H](N4CCOCC4)CC3)c2c1 [Example 2-1, 6-Bromo-4-{[trans-4-(morpholin-4-yl)cyclohexyl]oxy}quinazoline]	40
Brc1ccc2ncnc(N[C@H]3CC[C@H](N4CCOCC4)CC3)c2c1 [Example 2-2, 6-Bromo-N-[trans-4-(morpholin-4-yl)cyclohexyl]quinazolin-4-amine]	5
COc1cc2ncnc(N[C@H]3CC[C@H](N(C)C)CC3)c2cc1OC [Example 2-3, trans-N′-(6,7-dimethoxyquinazolin-4-yl)-N,N-dimethylcyclohexane-1,4-diamine]	7420
CN(C)[C@H]1CC[C@H](Nc2ncnc3cc(F)c(F)cc23)CC1 [Example 2-4, trans-N′-(6,7-difluoroquinazolin-4-yl)-N,N-dimethylcyclohexane-1,4-diamine]	303
CN(C)[C@H]1CC[C@H](Nc2ncnc3ccc(C#N)cc23)CC1 [Example 2-5, 4-{[trans-4-(dimethylamino)cyclohexyl]amino}quinazoline-6-carbonitrile]	7
CN(C)[C@H]1CC[C@H](Nc2ncnc3ccc(Br)cc23)CC1 [Example 2-6, trans-N′-(6-bromoquinazolin-4-yl)-N,N-dimethylcyclohexane-1,4-diamine]	9
N#Cc1ccc2ncnc(N[C@H]3CC[C@H](N4CCOCC4)CC3)c2c1 [Example 2-7, 4-{[trans-4-(morpholin-4-yl)cyclohexyl]amino} quinazoline-6-carbonitrile]	6
COc1ccc2ncnc(N[C@H]3CC[C@H](N4CCOCC4)CC3)c2c1 [Example 2-8, 6-methoxy-N-[trans-4-(morpholin-4-yl)cyclohexyl]quinazolin-4-amine]	16
Fc1ccc2ncnc(N[C@H]3CC[C@H](N4CCOCC4)CC3)c2c1 [Example 2-9, 6-fluoro-N-[trans-4-(morpholin-4-yl)cyclohexyl]quinazolin-4-amine]	113
CC(C)Oc1ccc2ncnc(N[C@H]3CC[C@H](N4CCOCC4)CC3)c2c1 [Example 2-10, N-[trans-4-(morpholin-4-yl)cyclohexyl]-6-(propan-2-yloxy)quinazolin-4-amine]	82
Fc1cc2ncnc(N[C@H]3CC[C@H](N4CCOCC4)CC3)c2cc1Br [Example 2-11, 6-bromo-7-fluoro-N-[trans-4-(morpholin-4-yl)cyclohexyl]quinazolin-4-amine]	15
COc1cc2c(N[C@H]3CC[C@H](N4CCOCC4)CC3)ncnc2cc1F [Example 2-12, 7-fluoro-6-methoxy-N-[trans-4-(morpholin-4-yl)cyclohexyl]quinazolin-4-amine]	58
Clc1ccc2ncnc(N[C@H]3CC[C@H](N4CCOCC4)CC3)c2c1 [Example 2-13, 6-chloro-N-[trans-4-(morpholin-4-yl)cyclohexyl]quinazolin-4-amine]	6
CN(C)[C@H]1CC[C@H](Nc2ncnc3ccc(OCC#N)cc23)CC1 [Example 2-15]	12
CN(C)[C@H]1CC[C@H](Nc2ncnc3ccc(OCCCC#N)cc23)CC1 [Example 2-16, 4-[(4-{[trans-4-(dimethylamino)cyclohexyl]amino}quinazolin-6-yl)oxy]butanenitrile]	734
CN(C)[C@H]1CC[C@H](Nc2ncnc3ccc(OCC(N)=O)cc23)CC1 [Example 2-17, 2-[(4-{[trans-4-(dimethylamino)cyclohexyl]amino}quinazolin-6-yl)oxy]acetamide]	52
N#Cc1ccc2ncnc(NC3CCC(N4CCOCC4)[C@@H]4C[C@H]34)c2c1 (stereo partly drawn) [Example 2-18, 4-{[(1S,6R)-5-(morpholin-4-yl)bicyclo[4.1.0]hept-2-yl]amino}quinazoline-6-carbonitrile]	56
